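Exposure lasted 48 hours, with cells grown in 96-well plates and compounds tested at five concentrations. TGI marks complete inhibition of growth.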
Experiments:
Experiment in all cases: NCI-60 cell line screen, 48 h
SF-268 CNS = system: SF-268 CNS
SN12C renal = system: SN12C renal
OVCAR-8 ovarian = system: OVCAR-8 ovarian
T-47D breast = system: T-47D breast
SK-OV-3 ovarian = system: SK-OV-3 ovarian
HOP-92 NSCLC = system: HOP-92 NSCLC
MDA-MB-435 = system: MDA-MB-435
EKVX NSCLC = system: EKVX NSCLC
UO-31 renal = system: UO-31 renal
MDA-MB-231 breast = system: MDA-MB-231 breast
HCC-2998 colon = system: HCC-2998 colon
PC-3 prostate = system: PC-3 prostate
MDA-N = system: MDA-N
HCT-116 colon = system: HCT-116 colon
M14 melanoma = system: M14 melanoma
SF-295 CNS = system: SF-295 CNS
K-562 leukemia = system: K-562 leukemia
SK-MEL-5 melanoma = system: SK-MEL-5 melanoma
CAKI-1 renal = system: CAKI-1 renal
786-0 renal = system: 786-0 renal
OVCAR-4 ovarian = system: OVCAR-4 ovarian
SW-620 colon = system: SW-620 colon
LOX IMVI melanoma = system: LOX IMVI melanoma
KM12 colon = system: KM12 colon
UACC-257 melanoma = system: UACC-257 melanoma
DU-145 prostate = system: DU-145 prostate
NCI/ADR-RES ovarian = system: NCI/ADR-RES ovarian
IGROV1 ovarian = system: IGROV1 ovarian
NCI-H460 lung = system: NCI-H460 lung
MCF7 breast = system: MCF7 breast
CCRF-CEM leukemia = system: CCRF-CEM leukemia
MOLT-4 leukemia = system: MOLT-4 leukemia
U251 CNS = system: U251 CNS
SK-MEL-2 melanoma = system: SK-MEL-2 melanoma
A549 NSCLC = system: A549 NSCLC
OVCAR-3 ovarian = system: OVCAR-3 ovarian
HT29 colon = system: HT29 colon
RXF 393 renal = system: RXF 393 renal
NCI-H23 lung = system: NCI-H23 lung
MALME-3M melanoma = system: MALME-3M melanoma
A498 renal = system: A498 renal
NCI-H226 lung = system: NCI-H226 lung
OVCAR-5 ovarian = system: OVCAR-5 ovarian
RPMI-8226 leukemia = system: RPMI-8226 leukemia
COLO 205 colon = system: COLO 205 colon
SNB-19 CNS = system: SNB-19 CNS
SF-539 CNS = system: SF-539 CNS
HL-60(TB) leukemia = system: HL-60(TB) leukemia
HCT-15 colon = system: HCT-15 colon
ACHN renal = system: ACHN renal
BT-549 breast = system: BT-549 breast
TK-10 renal = system: TK-10 renal
HS 578T breast = system: HS 578T breast
NCI-H522 lung = system: NCI-H522 lung
HOP-62 NSCLC = system: HOP-62 NSCLC
UACC-62 melanoma = system: UACC-62 melanoma
SK-MEL-28 melanoma = system: SK-MEL-28 melanoma
SNB-75 CNS = system: SNB-75 CNS

Measured: TGI

O=C(O)c1ccc(C=C2Sc3ccccc3S2)cc1
44.9 µM: MDA-MB-435
74.2 µM: ACHN renal
95.2 µM: UACC-62 melanoma
39.6 µM: A498 renal
81.2 µM: MDA-N
42.5 µM: HCC-2998 colon
83 µM: OVCAR-3 ovarian
not listed: SK-MEL-28 melanoma | SNB-75 CNS
> 100 µM: all other assays above

CCOC(=O)C1=CC(C)(C(=O)OCC)Nc2c(nc(SC)[nH]c2=O)N1 (configuration not stated)
not listed: HL-60(TB) leukemia | UACC-62 melanoma
> 10 µM: all other assays above
